Experimental data reported in the supplement of paper PMC11208160.

assay: recombinant barcode read abundance after kanamycin selection (control-corrected) (log10(CPM+1)); higher = more efficient recombination; sequences stand for … in AGTGCAGAGAAAATCGGCCAGTTTTCTCTGCCTGCAGTCCGCATGCCGT…AGATTTATGCAGCGGACTGCCTTTCTCCCAAAGTGATAAACCGGACAGTATCATGGACCGGTTTTCCCGGTAATCCGTATTTGCAAGGTTGGTTTCACT; site = the 11-nt target
Procedure, shortened: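 The screen was pooled in E. coli and paired targets with IS621 bridge RNA target-binding loops. Recombination efficiency is taken from barcode counts per million at recombinant junctions, averaged and adjusted against the control. Values, in the form log10(CPM+1), come from duplicate plating on chloramphenicol/ampicillin LB agar or on chloramphenicol/ampicillin/kanamycin with 0.1 mM IPTG.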
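Note: IS621 recombinase and bridge RNA in Escherichia coli cells.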

Sequence | recombinant barcode read abundance (log10)
AGCGAGTCTTGGGTTCTAACCTGTTGCCT (site AGCGAGTCTAG) | 2.08
AGCGAGTCTTGGGTTCTAACCTGTTGCCT (site ATCGAGTCTAG) | 0.465
AGCGCTACTTGGGTTCTAACCTGTTGCCT (site ACCGCTACTAG) | 0.121
AGCGCTACTTGGGTTCTAACCTGTTGCCT (site AGCGCTACTAG) | 0.145
AGCTAACCTTGGGTTCTAACCTGTTGCCT (site AGCTAACCTAG) | 0.407
AGCTAACCTTGGGTTCTAACCTGTTGCCT (site AGTGAACCTAG) | 0.127
AGCTACCCTTGGGTTCTAACCTGTTGCTT (site ACCTACTCTAA) | 0.0582
AGCTACCCTTGGGTTCTAACCTGTTGCTT (site AGCTACCCTAA) | 0.62
AGCTCCTCTTGGGTTCTAACCTGTTGCCT (site AGCTCCTCTAG) | 0.0883
AGCTCCTCTTGGGTTCTAACCTGTTGCCT (site CGCTCCTCTAG) | 0.144
AGCTCCTCTTGGGTTCTAACCTGTTGCCT (site GGCTCCTCTAG) | 0.0482
AGCTCCTCTTGGGTTCTAACCTGTTGCCT (site TGCTCCTCTAG) | 0.0453
AGCTCGTCTTGGGTTCTAACCTGTTGCGG (site AGCTCGTCTCC) | 0.448
AGCTCGTCTTGGGTTCTAACCTGTTGCGG (site AGTTCGTCTCG) | 0.191
AGCTGGGCTTGGGTTCTAACCTGTTGCCT (site AACTGGGCTAG) | 0.0885
AGCTGGGCTTGGGTTCTAACCTGTTGCCT (site ACCTGGGCTAG) | 0.101
AGCTGGGCTTGGGTTCTAACCTGTTGCCT (site AGCTGGGCTAG) | 0.235
AGCTGGGCTTGGGTTCTAACCTGTTGCCT (site ATCTGGGCTAG) | 0.11
AGCTTATCTTGGGTTCTAACCTGTTGCCT (site AGCTAAACTAG) | 0.131
AGCTTATCTTGGGTTCTAACCTGTTGCCT (site AGCTTATCTAG) | 0.179
AGGAACACTTGGGTTCTAACCTGTTGCTT (site AGGAACACTAA) | 1.56
AGGAACACTTGGGTTCTAACCTGTTGCTT (site AGGAACACTCA) | 0.279

Sequence | recombinant barcode read abundance (log10)
AGGAACCCTTGGGTTCTAACCTGTTGCTT (site AGGAACCCTAA) | 0.911
AGGAACCCTTGGGTTCTAACCTGTTGCTT (site AGGAACCCTCA) | 0.328
AGGAACCCTTGGGTTCTAACCTGTTGCTT (site AGGAACCCTGA) | 0.127
AGGAACCCTTGGGTTCTAACCTGTTGCTT (site AGGAACCCTTA) | 0.256
AGGAAGACTTGGGTTCTAACCTGTTGCGG (site AGGAAGACTCC) | 3.01
AGGAAGACTTGGGTTCTAACCTGTTGCGG (site AGGAAGACTCG) | 0.25
AGGAAGGCTTGGGTTCTAACCTGTTGCCA (site AGGAAGGCTTG) | 0.693
AGGAAGGCTTGGGTTCTAACCTGTTGCCA (site GACGTAACTCT) | 0.145
AGGACTACTTGGGTTCTAACCTGTTGCCT (site AGAACTACTAG) | 0.217
AGGACTACTTGGGTTCTAACCTGTTGCCT (site AGGACTACTAG) | 1.3
AGGAGAGCTTGGGTTCTAACCTGTTGCTT (site AGGAGAGCTAA) | 1.13
AGGAGAGCTTGGGTTCTAACCTGTTGCTT (site CTAGCGACTGT) | 0.0392
AGGAGCCCTTGGGTTCTAACCTGTTGCCA (site AGGAGCCCTAG) | 0.408
AGGAGCCCTTGGGTTCTAACCTGTTGCCA (site AGGAGCCCTTG) | 0.841
AGGAGCCCTTGGGTTCTAACCTGTTGCTA (site AGGAGCCCTAA) | 0.0121
AGGAGCCCTTGGGTTCTAACCTGTTGCTA (site AGGAGCCCTCA) | 0.165
AGGAGCCCTTGGGTTCTAACCTGTTGCTA (site AGGAGCCCTGA) | 0.0798
AGGAGCCCTTGGGTTCTAACCTGTTGCTA (site AGGAGCCCTTA) | 1.38
AGGATAGCTTGGGTTCTAACCTGTTGCGG (site AGGATAGCTCC) | 2.18
AGGATAGCTTGGGTTCTAACCTGTTGCGG (site AGTCTAGCTCC) | 0.102
AGGATAGCTTGGGTTCTAACCTGTTGCTG (site AGAATAGCTCT) | 0.148
AGGATAGCTTGGGTTCTAACCTGTTGCTG (site AGGATAGCTCA) | 1.45

Sequence | recombinant barcode read abundance (log10)
AGGATCCCTTGGGTTCTAACCTGTTGCAG (site AGGATCCCTAT) | 0.701
AGGATCCCTTGGGTTCTAACCTGTTGCAG (site AGGATCCCTCT) | 2.31
AGGCCCGCTTGGGTTCTAACCTGTTGCGG (site AGGCCCGCTCC) | 0.794
AGGCCCGCTTGGGTTCTAACCTGTTGCGG (site GTAAGATCTGT) | 0.186
AGGCGCCCTTGGGTTCTAACCTGTTGCAG (site AGGCGCCCTAT) | 0.185
AGGCGCCCTTGGGTTCTAACCTGTTGCAG (site AGGCGCCCTCT) | 1.4
AGGCGCCCTTGGGTTCTAACCTGTTGCAG (site AGGCGCCCTGT) | 0.0789
AGGCGCCCTTGGGTTCTAACCTGTTGCAG (site AGGCGCCCTTT) | 0.122
AGGCGTCCTTGGGTTCTAACCTGTTGCCC (site AGGCGTCCTAG) | 0.417
AGGCGTCCTTGGGTTCTAACCTGTTGCCC (site AGGCGTCCTCG) | 0.0817
AGGCGTCCTTGGGTTCTAACCTGTTGCCC (site AGGCGTCCTGG) | 1.78
AGGCGTCCTTGGGTTCTAACCTGTTGCCC (site AGGCGTCCTTG) | 0.211
AGGCTGCCTTGGGTTCTAACCTGTTGCCT (site AGGCTGACTAG) | 0.126
AGGCTGCCTTGGGTTCTAACCTGTTGCCT (site AGGCTGCCTAG) | 0.867
AGGCTGCCTTGGGTTCTAACCTGTTGCCT (site AGGCTGGCTAG) | 0.0502
AGGCTGCCTTGGGTTCTAACCTGTTGCCT (site AGGCTGTCTAG) | 0.494
AGGCTGGCTTGGGTTCTAACCTGTTGCCT (site AGGCTGACTAG) | 0.511
AGGCTGGCTTGGGTTCTAACCTGTTGCCT (site AGGCTGCCTAG) | 0.0205
AGGCTGGCTTGGGTTCTAACCTGTTGCCT (site AGGCTGGCTAG) | 0.482
AGGCTGGCTTGGGTTCTAACCTGTTGCCT (site AGGCTGTCTAG) | 0.166
AGGGACCCTTGGGTTCTAACCTGTTGCCT (site AGGGACCCTAG) | 2.62
AGGGACCCTTGGGTTCTAACCTGTTGCCT (site TCTTGGACTGT) | 0.0407
